Assay results: patent US11945822B2, “Pyrazolo-triazine and/or pyrazolo-pxrimidine derivatives as selective inhibitor of cyclin dependent kinase” (QURIENT CO., LTD., priority 2018, dated 2024)

test system: H460; assay: Cellular H460 viability assay (CellTiter-Glo, 72 hours); format: cell-based; conditions: Homo sapiens, NCI-H460
Outline: (§1)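 Cells plated in 96 wells and exposed to compound 72 h at 37 °C, 5% CO2, final DMSO below 0.1%, DMSO control. Viability by CellTiter-Glo luminescence, duplicate.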

IC50 [nM] | Compound
1000 to 10000 | CC(C)c1cnn2c(N[C@@H](C)c3ccccc3-n3cc(N4CCNCC4)cn3)nc(N3CCC(N)CC3)nc12 [Compound 192]
< 1000 | CC(C)c1cnn2c(NCc3ccccc3-n3cc(N4CCNCC4)cn3)nc(N3CCC(N)CC3)nc12 [Compound 180]
1000 to 10000 | CC(C)c1cnn2c(NCc3c(Cl)cccc3-n3ccc(C(=O)NC4CCNCC4)n3)nc(N3CCC(N)CC3)nc12 [Compound 196]

test system: MV4-11; assay: Cellular MV4-11 viability assay (CellTiter-Glo, 72 hours); format: cell-based; conditions: Homo sapiens
Outline: as §1

IC50 [nM] | Compound
< 1000 | CC(C)c1cnn2c(N[C@@H](C)c3ccccc3-n3cc(N4CCNCC4)cn3)nc(N3CCC(N)CC3)nc12 [Compound 192]
< 1000 | CC(C)c1cnn2c(NCc3ccccc3-n3cc(N4CCNCC4)cn3)nc(N3CCC(N)CC3)nc12 [Compound 180]
< 1000 | CC(C)c1cnn2c(NCc3c(Cl)cccc3-n3ccc(C(=O)NC4CCNCC4)n3)nc(N3CCC(N)CC3)nc12 [Compound 196]

test system: HCT116; assay: Cellular HCT116 viability assay (CellTiter-Glo, 72 hours); format: cell-based; conditions: Homo sapiens, HCT-116
Outline: as §1

IC50 [nM] | Compound
< 1000 | CC(C)c1cnn2c(N[C@@H](C)c3ccccc3-n3cc(N4CCNCC4)cn3)nc(N3CCC(N)CC3)nc12 [Compound 192]
< 1000 | CC(C)c1cnn2c(NCc3ccccc3-n3cc(N4CCNCC4)cn3)nc(N3CCC(N)CC3)nc12 [Compound 180]
< 1000 | CC(C)c1cnn2c(NCc3c(Cl)cccc3-n3ccc(C(=O)NC4CCNCC4)n3)nc(N3CCC(N)CC3)nc12 [Compound 196]

target: T1, CDK1/Cyclin B (Homo sapiens, UniProt P06493); assay: Enzymatic assay for CDK1 (FRET based LANCE Ultra kinase assay); format: biochemical; conditions: read-out: CDK1 enzymatic activity (IC50 range)
T1 construct: purchased Invitrogen PR4768C
Outline: (§2)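 LANCE Ultra TR-FRET: ULight-MBP peptide (68 nM) with ATP at Km, […], 60 min at 23° C. EDTA plus Eu-anti-phospho-MBP added, another 60 min, then 665/615 nm emission read. Compounds tested as 8-dose 4-fold DMSO dilutions.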

T1 sequence (P06493 whole entry): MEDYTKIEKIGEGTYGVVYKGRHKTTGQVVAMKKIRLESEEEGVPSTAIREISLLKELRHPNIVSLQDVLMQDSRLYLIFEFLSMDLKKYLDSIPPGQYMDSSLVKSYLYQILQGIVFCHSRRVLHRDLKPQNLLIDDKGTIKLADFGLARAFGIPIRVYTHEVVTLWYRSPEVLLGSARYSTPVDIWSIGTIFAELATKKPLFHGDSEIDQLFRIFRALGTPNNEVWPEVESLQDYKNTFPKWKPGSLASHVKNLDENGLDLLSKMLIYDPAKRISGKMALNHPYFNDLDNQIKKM
T1 sequence (P14635 whole entry partner): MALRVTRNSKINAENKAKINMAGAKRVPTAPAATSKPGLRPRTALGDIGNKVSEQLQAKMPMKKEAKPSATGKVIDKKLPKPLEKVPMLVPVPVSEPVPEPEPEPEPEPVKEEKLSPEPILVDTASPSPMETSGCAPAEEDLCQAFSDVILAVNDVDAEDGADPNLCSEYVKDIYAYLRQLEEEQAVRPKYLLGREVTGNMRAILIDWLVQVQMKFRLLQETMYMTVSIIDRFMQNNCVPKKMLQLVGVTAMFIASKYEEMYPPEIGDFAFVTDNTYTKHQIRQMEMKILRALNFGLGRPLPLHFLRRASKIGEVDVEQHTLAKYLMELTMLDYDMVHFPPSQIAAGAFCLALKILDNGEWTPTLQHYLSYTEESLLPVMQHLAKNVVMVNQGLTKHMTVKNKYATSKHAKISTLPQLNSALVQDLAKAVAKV

IC50 [nM] | Compound
> 1000 | CC(C)c1cnn2c(N[C@@H](C)c3ccccc3-n3cc(N4CCNCC4)cn3)nc(N3CCC(N)CC3)nc12 [Compound 192]
100 to 1000 | CC(C)c1cnn2c(NCc3ccccc3-n3cc(N4CCNCC4)cn3)nc(N3CCC(N)CC3)nc12 [Compound 180]
> 1000 | CC(C)c1cnn2c(NCc3c(Cl)cccc3-n3ccc(C(=O)NC4CCNCC4)n3)nc(N3CCC(N)CC3)nc12 [Compound 196]

test system: MM.1S; assay: Cellular MM.1S viability assay (CellTiter-Glo, 72 hours); format: cell-based; conditions: Homo sapiens, MM1.S
Excerpt: Human T-cell acute lymphoblastic leukemia cell line, MOLT-4 (ATCC, Cat #CRL-1582), Human multiple myeloma cell line, RPMI-8226 (Invitrogen, Cat #22400-089) and MM.1S (ATCC, Cat #CRL-2974), NSCLC (Non-small cell lung cancer) cell line H460 (ATCC, Cat #HTB-177), Human colon colorectal carcinoma cell line HCT116 (ATCC, Cat #CCL-247), Human acute monocytic leukemia cell line MV4-11 (ATCC, Cat #CRL-9591), OVCAR-3 (ATCC, Cat #HTB-161) and A2780 (ECACC, Cat #93112519) were obtained from ATCC. Cells were grown in RPMI-1640 media (Invitrogen, Cat #22400-089) supplemented with 10% FBS (Invitrogen, Cat #10099141) and 1% penicillin/streptomycin (Invitrogen, Cat #15070063) and cultured at 37° C., 5% CO2 in a humidified chamber. All cell lines were routinely tested for mycoplasma.
The effect of the CDK7 inhibitor to inhibit the growth of target cancer cells was evaluated through the 72 hours time period of viability assay. Briefly, the candidate cell line ware plated in 96 well plate at the following density of cells respectively. 1×10^4 cells/well for MOLT-4, RPMI-8226, MV4-11 and MM.1S, 5×10^3 for H460, HCT116 and OVCAR-3 and IX 10^3 for A2780. After 24 hours, the cells were treated with various concentrations of the compound (ranging from 0.0015 uM to 10 uM). DMSO solvent without compound served as a control and final DMSO concentration less than 0.1%. After 72 hours of incubation at 37° C., 5% CO2 incubator, cells were analyzed for the viability using the CellTiter-Glo Luminescent Cell Viability Assay (Promega, Cat #G7570). All viability assays were performed in duplicate and Luminescence was read using an Envision (Perkin Elmer, USA). Data was analyzed using XLfit software.

IC50 [nM] | Compound
1000 to 10000 | CC(C)c1cnn2c(N[C@@H](C)c3ccccc3-n3cc(N4CCNCC4)cn3)nc(N3CCC(N)CC3)nc12 [Compound 192]
≤ 1000 | CC(C)c1cnn2c(NCc3ccccc3-n3cc(N4CCNCC4)cn3)nc(N3CCC(N)CC3)nc12 [Compound 180]
1000 to 10000 | CC(C)c1cnn2c(NCc3c(Cl)cccc3-n3ccc(C(=O)NC4CCNCC4)n3)nc(N3CCC(N)CC3)nc12 [Compound 196]

target: T2, CDK2/Cyclin A (Homo sapiens, UniProt P24941); assay: Enzymatic assay for CDK2 (FRET based LANCE Ultra kinase assay); format: biochemical; conditions: read-out: CDK2 enzymatic activity (IC50 range)
T2 construct: purchased Invitrogen PV6290
Outline: as §2

IC50 [nM] | Compound
> 1000 | CC(C)c1cnn2c(N[C@@H](C)c3ccccc3-n3cc(N4CCNCC4)cn3)nc(N3CCC(N)CC3)nc12 [Compound 192]
100 to 1000 | CC(C)c1cnn2c(NCc3ccccc3-n3cc(N4CCNCC4)cn3)nc(N3CCC(N)CC3)nc12 [Compound 180]
> 1000 | CC(C)c1cnn2c(NCc3c(Cl)cccc3-n3ccc(C(=O)NC4CCNCC4)n3)nc(N3CCC(N)CC3)nc12 [Compound 196]

target: T3, CDK7/Cyclin H/MNAT1 (Homo sapiens, UniProt P50613); assay: Enzymatic assay for CDK7 (FRET based LANCE Ultra kinase assay); format: biochemical; conditions: CDK7 over CDK1
T3 construct: purchased Invitrogen PR6749B
Outline: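 LANCE Ultra TR-FRET kinase assay using a ULight-labeled peptide substrate and a Eu-labeled anti-phospho antibody, with ATP at its Km. Purified CDK/cyclin complex was added to compound after brief centrifugation.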

T3 sequence (P50613 whole entry): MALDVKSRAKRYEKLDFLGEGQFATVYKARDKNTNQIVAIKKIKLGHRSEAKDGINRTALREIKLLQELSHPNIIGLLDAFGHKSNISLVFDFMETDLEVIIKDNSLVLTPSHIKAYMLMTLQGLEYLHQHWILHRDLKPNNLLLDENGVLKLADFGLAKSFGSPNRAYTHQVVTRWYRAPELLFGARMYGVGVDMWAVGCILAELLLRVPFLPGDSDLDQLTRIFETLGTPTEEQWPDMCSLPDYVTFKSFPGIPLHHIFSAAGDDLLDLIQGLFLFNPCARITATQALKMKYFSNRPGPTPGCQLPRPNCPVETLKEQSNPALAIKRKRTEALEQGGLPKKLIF
T3 sequence (P51946 whole entry partner): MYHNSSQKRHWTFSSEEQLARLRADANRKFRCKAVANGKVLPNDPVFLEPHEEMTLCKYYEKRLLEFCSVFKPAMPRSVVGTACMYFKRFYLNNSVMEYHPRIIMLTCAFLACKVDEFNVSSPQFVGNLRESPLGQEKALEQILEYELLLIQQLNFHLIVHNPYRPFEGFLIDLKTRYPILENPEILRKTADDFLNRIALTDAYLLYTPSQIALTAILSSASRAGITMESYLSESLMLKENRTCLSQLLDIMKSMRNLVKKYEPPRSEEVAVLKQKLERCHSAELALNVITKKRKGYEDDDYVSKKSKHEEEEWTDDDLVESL
T3 sequence (P51948 whole entry partner): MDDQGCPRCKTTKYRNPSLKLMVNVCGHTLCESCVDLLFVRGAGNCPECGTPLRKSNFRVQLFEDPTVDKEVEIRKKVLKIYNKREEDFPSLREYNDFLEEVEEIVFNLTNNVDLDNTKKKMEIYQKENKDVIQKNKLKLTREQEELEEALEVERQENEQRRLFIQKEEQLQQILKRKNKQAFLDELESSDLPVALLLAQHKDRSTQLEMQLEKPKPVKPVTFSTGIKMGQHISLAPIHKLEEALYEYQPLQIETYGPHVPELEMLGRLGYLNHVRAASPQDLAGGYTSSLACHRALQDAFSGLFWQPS

CDK1/CDK7: Selectivity of CDK7 inhibition over CDK1 inhibition | Compound
A (A=greater than 200 fold) | CC(C)c1cnn2c(N[C@@H](C)c3ccccc3-n3cc(N4CCNCC4)cn3)nc(N3CCC(N)CC3)nc12 [Compound 192]
A (A=greater than 200 fold) | CC(C)c1cnn2c(NCc3c(Cl)cccc3-n3ccc(C(=O)NC4CCNCC4)n3)nc(N3CCC(N)CC3)nc12 [Compound 196]

Compound | CDK1/CDK7: Selectivity of CDK7 inhibition over CDK1 inhibition
CC(C)c1cnn2c(NCc3ccccc3-n3cc(N4CCNCC4)cn3)nc(N3CCC(N)CC3)nc12 [Compound 180] | B (B=less than 200 fold, but greater than 20 fold)

same assay, conditions: CDK7 over CDK2

CDK2/CDK7: Selectivity of CDK7 inhibition over CDK2 inhibition | Compound
A (A=greater than 200 fold) | CC(C)c1cnn2c(N[C@@H](C)c3ccccc3-n3cc(N4CCNCC4)cn3)nc(N3CCC(N)CC3)nc12 [Compound 192]
A (A=greater than 200 fold) | CC(C)c1cnn2c(NCc3c(Cl)cccc3-n3ccc(C(=O)NC4CCNCC4)n3)nc(N3CCC(N)CC3)nc12 [Compound 196]

Compound | CDK2/CDK7: Selectivity of CDK7 inhibition over CDK2 inhibition
CC(C)c1cnn2c(NCc3ccccc3-n3cc(N4CCNCC4)cn3)nc(N3CCC(N)CC3)nc12 [Compound 180] | B (B=less than 200 fold, but greater than 20 fold)

same assay, conditions: CDK7 over CDK5

CDK5/CDK7: Selectivity of CDK7 inhibition over CDK5 inhibition | Compound
A (A=greater than 200 fold) | CC(C)c1cnn2c(N[C@@H](C)c3ccccc3-n3cc(N4CCNCC4)cn3)nc(N3CCC(N)CC3)nc12 [Compound 192]
C (C=less than 20 fold) | CC(C)c1cnn2c(NCc3ccccc3-n3cc(N4CCNCC4)cn3)nc(N3CCC(N)CC3)nc12 [Compound 180]
A (A=greater than 200 fold) | CC(C)c1cnn2c(NCc3c(Cl)cccc3-n3ccc(C(=O)NC4CCNCC4)n3)nc(N3CCC(N)CC3)nc12 [Compound 196]

same assay, conditions: read-out: CDK7 enzymatic activity (IC50 range)

IC50 [nM] | Compound
< 100 | CC(C)c1cnn2c(N[C@@H](C)c3ccccc3-n3cc(N4CCNCC4)cn3)nc(N3CCC(N)CC3)nc12 [Compound 192]
< 100 | CC(C)c1cnn2c(NCc3ccccc3-n3cc(N4CCNCC4)cn3)nc(N3CCC(N)CC3)nc12 [Compound 180]
< 100 | CC(C)c1cnn2c(NCc3c(Cl)cccc3-n3ccc(C(=O)NC4CCNCC4)n3)nc(N3CCC(N)CC3)nc12 [Compound 196]

target: T4, CDK5/p25 (Homo sapiens, UniProt Q00535); assay: Enzymatic assay for CDK5 (FRET based LANCE Ultra kinase assay); format: biochemical; conditions: read-out: CDK5 enzymatic activity (IC50 range)
T4 construct: purchased Invitrogen PR8543B
Outline: as §2

T4 sequence (Q00535 whole entry): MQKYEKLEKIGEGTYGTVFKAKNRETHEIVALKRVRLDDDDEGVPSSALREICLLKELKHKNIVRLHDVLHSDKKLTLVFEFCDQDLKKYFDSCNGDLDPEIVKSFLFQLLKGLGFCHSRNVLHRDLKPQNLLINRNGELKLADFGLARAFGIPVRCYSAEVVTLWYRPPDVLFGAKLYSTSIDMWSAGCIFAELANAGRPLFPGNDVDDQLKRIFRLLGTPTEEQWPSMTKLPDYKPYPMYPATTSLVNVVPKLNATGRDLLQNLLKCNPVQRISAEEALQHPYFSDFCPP
T4 sequence (Q15078 99-307 partner limits assumed): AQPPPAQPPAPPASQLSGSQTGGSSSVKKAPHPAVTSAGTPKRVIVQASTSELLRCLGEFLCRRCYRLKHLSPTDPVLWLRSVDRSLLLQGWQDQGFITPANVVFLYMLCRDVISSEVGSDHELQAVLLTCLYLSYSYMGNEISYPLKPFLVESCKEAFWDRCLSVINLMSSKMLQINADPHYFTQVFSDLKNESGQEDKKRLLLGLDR

IC50 [nM] | Compound
> 1000 | CC(C)c1cnn2c(N[C@@H](C)c3ccccc3-n3cc(N4CCNCC4)cn3)nc(N3CCC(N)CC3)nc12 [Compound 192]
< 100 | CC(C)c1cnn2c(NCc3ccccc3-n3cc(N4CCNCC4)cn3)nc(N3CCC(N)CC3)nc12 [Compound 180]
100 to 1000 | CC(C)c1cnn2c(NCc3c(Cl)cccc3-n3ccc(C(=O)NC4CCNCC4)n3)nc(N3CCC(N)CC3)nc12 [Compound 196]
